Six compounds from ChEMBL document CHEMBL4831551, “Novel Heteroaromatic Carboxamides as Plasma Kallikrein Inhibitors for Treating Diabetic Complications, Ocular Diseases, and Edema-Associated Diseases” (ACS Med Chem Lett, 2021) can be followed below.

The target in this test is Plasma kallikrein (Homo sapiens, UniProt P03952). Kind of test: Inhibition of kallikrein (unknown origin) using H-Pro-Phe-Arg-AMC as substrate incubated for 1 hr by fluorescence based analysis.
Chain of Plasma kallikrein (P03952 20-390 limits assumed): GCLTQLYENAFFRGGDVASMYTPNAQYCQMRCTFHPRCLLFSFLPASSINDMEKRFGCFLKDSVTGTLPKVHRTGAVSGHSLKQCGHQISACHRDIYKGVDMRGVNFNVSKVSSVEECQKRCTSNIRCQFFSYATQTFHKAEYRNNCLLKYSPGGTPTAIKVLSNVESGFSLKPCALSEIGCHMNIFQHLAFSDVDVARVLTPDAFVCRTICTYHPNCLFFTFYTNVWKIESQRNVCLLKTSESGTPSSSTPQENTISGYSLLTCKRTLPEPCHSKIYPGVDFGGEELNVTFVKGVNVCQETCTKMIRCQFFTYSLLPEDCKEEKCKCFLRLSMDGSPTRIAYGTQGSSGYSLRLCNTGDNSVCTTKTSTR
Chain of Plasma kallikrein (P03952 391-638 limits assumed): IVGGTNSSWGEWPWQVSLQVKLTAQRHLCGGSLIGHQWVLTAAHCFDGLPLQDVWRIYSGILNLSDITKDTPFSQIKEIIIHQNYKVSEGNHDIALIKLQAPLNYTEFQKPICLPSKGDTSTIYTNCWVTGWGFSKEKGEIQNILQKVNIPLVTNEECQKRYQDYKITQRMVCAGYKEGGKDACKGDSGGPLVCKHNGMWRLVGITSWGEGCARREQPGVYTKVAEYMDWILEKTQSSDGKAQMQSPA

What is called IC50 is the point on the concentration scale where inhibition reaches its midpoint. A high value points to weaker potency in that assay. For the compound `Cc1[nH]nc2c1CC[C@H]2NC(=O)c1cnn(Cc2ccc(N3CC4CC4C3)nc2C(F)F)c1` (stereo partly specified), inhibition was half-maximal at 0.8 nM (IC50).

Compound `Cc1[nH]nc2c1CC[C@H]2NC(=O)c1cn(Cc2ccc(N3CC4(CC4)C3)nc2C(F)F)cn1` registered an IC50 of 0.5 nM.

`Cc1[nH]nc2c1CC[C@H]2NC(=O)c1cn(Cc2ccc(N3CC4C(C3)C4(F)F)nc2C(F)F)cn1` (stereo partly specified): the half-inhibitory concentration (IC50) stood at 0.6 nM.

`Cc1[nH]nc2c1CC[C@H]2NC(=O)c1cn(Cc2ccc(N3CC4(CC4)C3)nc2C(F)F)nn1` yielded an IC50 of 0.5 nM.

As to `Cc1[nH]nc2c1CC[C@H]2NC(=O)c1cn(Cc2ccc(N3CC4CC4C3)nc2C(F)F)cn1` (stereo partly specified), the half-maximal inhibitory concentration (IC50) was determined as 0.7 nM.

With `Cc1[nH]nc2c1CC[C@H]2NC(=O)c1cnn(Cc2ccc(N3CC4C(C3)C4(F)F)nc2C(F)F)c1` (stereo partly specified), 0.8 nM corresponded to half-maximal inhibition (IC50).
